Data taken from article PMC3227451, “Structure-based development of novel sirtuin inhibitors” (Aging (Albany NY), 2011).
Like-named read-outs stand apart in the source and are kept apart here.

Key:
Type in all cases: biochemical
Sirt6 = target: T1, Sirt6 (Homo sapiens, UniProt Q8N6T7); assay: Fluor-de-Lys peptide deacetylation assay, Sirt6
T1 construct: Sirt6 residues 13-308; His-tag with linker comprising a TEV protease cleavage site (N, cleaved yes); made in house; host or cells: E. coli Rosetta2
Protocol: (§1) The commercial Fluor-de-Lys (FdL) assay kits 1 and 2 (Biomol, Plymouth Meeting, USA) were used to test the deacetylase activity of the four Sirtuins. In both kits the substrate derived from p53 is composed of three amino acids, the acetyl lysine and a C-terminally attached fluorophor. For Sirt2 and 3, FdL-2 peptide (QPK(acetyl-K)) was used, and FdL-1 peptide (RHK(acetyl-K)) for Sirt5 and Sirt6. All tests were done with 0.1 mM of the respective FdL peptide and 0.5 mM NAD^+ as substrates.
(§2) NCI compound stocks were prepared by dissolving them in DMSO at a concentration of 5 mM. The initial screens with all 40 compounds contained 5 μl Sirtuin solution (Sirt2/3 0.1 mg/ml stock concentration; Sirt5/6 1 mg/ml), 1 μl of compound stock (resulting in a 100 μM end concentration), 15 μl FdL substrate, and assay buffer (supplied in the assay kit) to a total volume of 50 μl. As control reactions, peptide with either the compound (without Sirtuin) or with Sirtuin and DMSO instead of compound were measured. After starting the reactions by adding the FdL substrate, assays were incubated for 30 min at 37 °C. Subsequently, 50 μl of a 10 mg/ml trypsin stock (“Developer solution”) were added and the reactions were incubated for 45 min at room temperature. Fluorescence values were measured in a fluorometric plate reader with excitation at 360 nm and read out at 485 nm. Values were then corrected with the control reaction (same compound, but without Sirtuin).
(§3) All measurements shown are averages of duplicates (screen) or triplicates (dose-response curves), and representatives of at least two independent replications. Error bars indicate standard deviations.

Sirt2 = target: T2, Sirt2 (Homo sapiens, UniProt Q8IXJ6); assay: Fluor-de-Lys peptide deacetylation assay, Sirt2
T2 sequence (Q8IXJ6 34-356): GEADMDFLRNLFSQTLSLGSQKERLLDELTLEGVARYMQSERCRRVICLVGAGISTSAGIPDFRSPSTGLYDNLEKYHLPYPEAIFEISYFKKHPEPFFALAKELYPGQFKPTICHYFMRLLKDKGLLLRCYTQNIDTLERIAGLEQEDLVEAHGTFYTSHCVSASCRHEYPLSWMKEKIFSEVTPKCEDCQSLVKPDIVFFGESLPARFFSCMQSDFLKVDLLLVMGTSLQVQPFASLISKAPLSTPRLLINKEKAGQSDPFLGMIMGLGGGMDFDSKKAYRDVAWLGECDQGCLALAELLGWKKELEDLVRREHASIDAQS
Protocol: The Sirt2 construct was expressed in E. coli Rosetta2 cells (Merck) in LB/Ampicillin/Chloramphenicol medium. Cells were grown at 37 °C, and expression induced at an OD600 of 0.6-0.8 for 4 h with 0.5 mM IPTG. Harvested cells were resuspended in buffer A (50 mM Tris/HCl pH 7.8, 200 mM NaCl, 2 mM DTT), disrupted with a Sonifier, and cell debris removed by 40 min centrifugation at 4 °C, 18000 rpm in a HFA22.50 rotor. The supernatant was supplemented with 10 mM imidazole and incubated with Ni-NTA resin for 1 h at 4 °C. […] The protein was concentrated in an amicon unit (Millipore, Billerica, USA) and digested over night at 4 °C with TEV-protease. The protease was removed from cleaved Sirt2 by incubation with Ni-NTA resin for 1 h at 4 °C. The protein was concentrated, 1:5 diluted with 50 mM Tris/HCl, pH 7.8, and applied to a HiTrap Q anion exchange column (GE Healthcare) equilibrated with 50 mM Tris/HCl, pH 7.8, 50 mM NaCl, 2 mM DTT and eluted with a gradient (20 column volumes) to 50 mM Tris/HCl, pH 7.8, 1 M NaCl, 2 mM DTT. Sirt2 was then applied to a Superdex200 gel filtration column (GE Healthcare) equilibrated in 20 mM Tris/HCl, pH 7.8, 150 mM NaCl, 2 mM DTT. The eluted protein was analyzed by SDS-PAGE, re-concentrated, and shock-frozen in liquid nitrogen for storage at -80 °C.
as §1, §2, §3

Sirt3 = target: T3, Sirt3 (Homo sapiens, UniProt Q9NTG7); assay: Fluor-de-Lys peptide deacetylation assay, Sirt3
T3 construct: Sirt3 residues 114-399; His-tag with linker comprising a TEV protease cleavage site (N); made in house; host or cells: E. coli
T3 sequence (Q9NTG7 114-399): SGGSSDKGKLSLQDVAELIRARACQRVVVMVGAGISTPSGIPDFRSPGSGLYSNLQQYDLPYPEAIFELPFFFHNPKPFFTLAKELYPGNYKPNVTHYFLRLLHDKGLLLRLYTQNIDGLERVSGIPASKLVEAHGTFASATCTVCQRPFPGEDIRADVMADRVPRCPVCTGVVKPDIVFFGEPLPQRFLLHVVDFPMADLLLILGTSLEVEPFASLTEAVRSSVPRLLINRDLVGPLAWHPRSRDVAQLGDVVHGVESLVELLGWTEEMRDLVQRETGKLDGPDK
Protocol: (§4) Sirt3 was expressed in E. coli and purified via Ni-NTA and size exclusion chromatography as described elsewhere, and Sirt5 according to the protocol of Schuetz et al.. […] The protein was bound to the HiTrapQ column in buffer A and eluted in a gradient to buffer A supplemented with 400 mM KCl. Fractions were analyzed by SDS-PAGE, and the Sirt1 fractions were pooled and transferred into buffer A using a NAP column (GE Healthcare).
as §1, §2, §3

Sirt5 = target: T4, Sirt5 (Homo sapiens, UniProt Q9NXA8); assay: Fluor-de-Lys peptide deacetylation assay, Sirt5
T4 construct: Sirt5 residues 34-302; His-tag with linker comprising a TEV protease cleavage site (N); made in house
T4 sequence (Q9NXA8 34-302): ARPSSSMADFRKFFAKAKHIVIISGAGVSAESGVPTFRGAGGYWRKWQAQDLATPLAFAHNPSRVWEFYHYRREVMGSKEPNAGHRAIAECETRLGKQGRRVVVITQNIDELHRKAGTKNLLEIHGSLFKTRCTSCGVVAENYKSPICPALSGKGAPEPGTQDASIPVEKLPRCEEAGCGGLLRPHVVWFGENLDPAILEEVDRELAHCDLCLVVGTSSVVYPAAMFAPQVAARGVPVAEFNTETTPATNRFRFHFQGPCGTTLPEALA
Protocol: as §4, §1, §2, §3

[1] = 100 μM compound, 0.1 mM FdL-1 peptide, 0.5 mM NAD+
[2] = 100 μM compound, 0.1 mM FdL-2 peptide, 0.5 mM NAD+

T1 sequence (Q8N6T7 13-308): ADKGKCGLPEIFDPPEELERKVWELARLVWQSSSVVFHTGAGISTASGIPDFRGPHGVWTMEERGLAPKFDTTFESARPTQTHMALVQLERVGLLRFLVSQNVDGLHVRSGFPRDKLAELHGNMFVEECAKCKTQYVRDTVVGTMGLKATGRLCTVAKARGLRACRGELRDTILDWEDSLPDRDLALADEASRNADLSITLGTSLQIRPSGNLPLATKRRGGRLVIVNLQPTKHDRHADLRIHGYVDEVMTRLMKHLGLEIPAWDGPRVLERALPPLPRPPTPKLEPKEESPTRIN

SMILES | Effect on the activity of Sirt6 (Sirt6; [1]) | Effect on the activity of Sirt2 (Sirt2; [2]) | Effect on the activity of Sirt3 (Sirt3; [2]) | Effect on the activity of Sirt5 (Sirt5; [1]) | Effect on the activity of Sirt6 (Sirt6) | Effect on the activity of Sirt2 (Sirt2) | Effect on the activity of Sirt3 (Sirt3) | Effect on the activity of Sirt5 (Sirt5)
Cc1ccc(C(=N)c2ccccc2Cc2cccc3ccccc23)c2ccccc12 [CSC24, (4-methyl-1-naphthyl)(2-(1-naphthylmethyl)phenyl)methanimine] | --- (no such effect) | inhibition (significant inhibitory effects (>25% loss of activity)) | --- (no such effect) | --- (no such effect) |  |  |  | 
Clc1ccc(-c2noc(CN3CCCCC3)n2)cc1 [CSC37, 1-((3-(4-chlorophenyl)-1,2,4-oxadiazol-5-yl)methyl)piperidine] | --- (no such effect) | inhibition (significant inhibitory effects (>25% loss of activity)) | --- (no such effect) | --- (no such effect) |  |  |  | 
O=C(Nc1ccc(Nc2ccc3c(c2)C(=O)c2ccccc2C3=O)c2c1C(=O)c1ccccc1C2=O)c1ccccc1 [CSC17, N-(4-((9,10-dioxo-9,10-dihydro-2-anthracenyl)amino)-9,10-dioxo-9,10-dihydro-1-anthracenyl)benzamide, (Indanthrene Corinth RK)] | --- (no such effect) | --- (no such effect) | --- (no such effect) | --- (no such effect) |  |  |  | 
O=C1c2ccccc2-c2ccc(/N=[N+](\[O-])c3ccc4c(c3)C(=O)c3ccccc3-4)cc21 [CSC3] | --- (no such effect) | --- (no such effect) | --- (no such effect) | --- (no such effect) |  |  |  | 
OC1(C(O)(c2ccc(-c3ccccc3)cc2)c2ccc(-c3ccccc3)cc2)CCCCC1 [CSC39, 1-(di[1,1'-biphenyl]-4-yl(hydroxy)methyl)cyclohexanol] | --- (no such effect) | --- (no such effect) | --- (no such effect) | --- (no such effect) |  |  |  | 
O=S1(=O)CCN(c2ccccc2CC(c2c[nH]c3ccccc23)c2c[nH]c3ccccc23)CC1 [CSC11, 3-(2-(2-(1,1-dioxido-4-thiomorpholinyl)phenyl)-1-(1H-indol-3-yl)ethyl)-1H-indole] | --- (no such effect) | --- (no such effect) | --- (no such effect) | --- (no such effect) |  |  |  | 
O=C1C2C3c4ccccc4C(C2C(=O)N1c1ccc(OCc2ccccc2)cc1)[n+]1ccccc13 (stereo not shown) [CSC34] | activation | inhibition (significant inhibitory effects (>25% loss of activity)) | --- (no such effect) | --- (no such effect) |  |  |  | 
O=C1c2ccccc2C(=O)c2c1ccc(N1C(=O)c3ccccc3C1=O)c2-c1c(N2C(=O)c3ccccc3C2=O)ccc2c1C(=O)c1ccccc1C2=O [CSC27] | inhibition (significant inhibitory effects (>25% loss of activity)) | inhibition (significant inhibitory effects (>25% loss of activity)) | --- (no such effect) | --- (no such effect) |  |  |  | 
C[C@]12CC[C@H]3[C@@H](CCC4=CC(=O)CC[C@@H]43)[C@@H]1CCC2OC1(O)C(=O)c2ccccc2C1=O (stereo partly shown) [CSC16, 2-hydroxy-2-((3-oxoestr-4-en-17-yl)oxy)-1H-indene-1,3(2H)-dione] |  |  |  |  | --- (key: inhibition: significant inhibitory effects (>25% loss of activity); ---: no such effect) | --- (key: inhibition: significant inhibitory effects (>25% loss of activity); ---: no such effect) | --- (key: inhibition: significant inhibitory effects (>25% loss of activity); ---: no such effect) | --- (key: inhibition: significant inhibitory effects (>25% loss of activity); ---: no such effect)
O=C1c2ccccc2C(C2c3ccccc3C(=O)c3cc(Br)ccc32)c2ccc(Br)cc21 (stereo not shown) [CSC19] | --- (no such effect) | --- (no such effect) | --- (no such effect) | --- (no such effect) |  |  |  | 
S=C(Nc1ccc2c(c1)Cc1ccccc1-2)Nc1ccc2c(c1)Cc1ccccc1-2 [CSC7, N,N'-di(9H-fluoren-2-yl)thiourea] | --- (no such effect) | inhibition (significant inhibitory effects (>25% loss of activity)) | --- (no such effect) | --- (no such effect) |  |  |  | 
CN1C[C@H](C(=O)N[C@]2(C)O[C@@]3(O)[C@@H]4CCCN4C(=O)[C@H](Cc4ccccc4)N3C2=O)C=C2c3cccc4[nH]cc(c34)C[C@H]21 [CSC21, 5'-benzyl-12'-hydroxy-2'-methyl-3',6',18-trioxoergotaman, (Ergotamine), reference compound] |  |  |  |  | inhibition (key: inhibition: significant inhibitory effects (>25% loss of activity); ---: no such effect) | inhibition (key: inhibition: significant inhibitory effects (>25% loss of activity); ---: no such effect) | --- (key: inhibition: significant inhibitory effects (>25% loss of activity); ---: no such effect) | inhibition (key: inhibition: significant inhibitory effects (>25% loss of activity); ---: no such effect)
O=S(=O)(c1cccc(C(F)(F)F)c1)N1c2ccccc2-n2cccc2C1c1cccnc1 (stereo not shown) [CSC38, 4-(3-pyridinyl)-5-((3-(trifluoromethyl)phenyl)sulfonyl)-4,5-dihydropyrrolo[1,2-a]quinoxaline] | activation | inhibition (significant inhibitory effects (>25% loss of activity)) | --- (no such effect) | activation |  |  |  | 
